Test results reported in publication PMC9234963, “Optimizing Shape Complementarity Enables the Discovery of Potent Tricyclic BCL6 Inhibitors” (Journal of Medicinal Chemistry, 2022).
Where “and” joins values, the source holds several entries; their conditions need not be identical. Equal entries are not always repeated. Where two headings read alike, the source gives them in different places.

Legend:
[1] = NMR kinetic solubility assay; format: physicochemical; details: kinetic solubility by NMR, HEPES buffer pH 8, 4% DMSO
Description: 3. Supplementary experimental: physicochemical assays
The plate was then sealed and incubated at room temperature for 20 hours, without shaking. The plate was centrifuged again for 1 minute at […]
spectrometer equipped with a 5 mm TCI-CryoProbe. […]
deuterated solvent. […] All NMR data were acquired at the […]
contained 16k time-domain data points. Relaxation delay was set to 20 sec. Water signal was […]
The quantification of the compound concentration was carried out using MestReNova

human BCL6 BTB domain = human BCL6 BTB domain (Homo sapiens, UniProt P41182); assay: biochemical; details: for BCL6 TR-FRET mean pIC50: mean of replicates; for LE: ligand efficiency, 1.4*(pIC50)/HAC from TR-FRET; for LLE: lipophilic ligand efficiency from TR-FRET pIC50 and MoKa logD7.4
From the text: 6. Supplementary tables … S-17
Table S1: summary statistics and individual replicate values … S-17 […]
1. Supplementary experimental: protein production, purification and crystallography 1.1 BCL6 constructs used for assays and crystallography
A first construct of BCL6 BTB domain, which we will refer to as Trx-6His-HRV3C-BCL6, was obtained […]
3C protease cleavage site. For the TR-FRET assay, the Trx-6His-HRV3C-BCL6 protein construct was […]
used without cleaving the tag, as a 6His was needed to bind to the anti-6His-Terbium antibody. […]
For both plasmid constructs described above, transformed BL21-AI E. coli cells were grown in LB […]
carried out at 18 °C for 18 hours. Cells were harvested by centrifugation (5500 g for 30 minutes at 4 […]
oC) and stored at -80 °C.
2. Supplementary experimental: biological assay conditions
IC50 values were determined using […]
a sigmoidal four-parameter logistic fit equation.
Individual replicates shown in supplementary

[2] = HPLC kinetic solubility assay; format: physicochemical; details: kinetic solubility by HPLC, 10 mM phosphate-buffered saline pH 7.4, 1% DMSO
Description: 3.2 HPLC solubility assay
DMSO. Following shaking of the suspension on a Bohdan Shaker at 500 rpm for 2 hours at room […]
200 µL of the supernatant was transferred to a 2 mL Agilent vial containing 50 µL of DMSO (Sigma […]
detection using an external standard which was prepared by pipetting 10 µL of the same batch of […]
The detail of the HPLC method is as following: chromatographic separation at 30°C is carried out over a 5 minute gradient elution method from 90:10 to 10:90 water:methanol (both modified with 0.1% formic acid) at a flow rate of 1.5 mL/min. Calibration curve is prepared by injecting 0.5, 2.5, and 5 µL of compound external standard.
62.5 µL of compound solubility sample. […]

PAMPA permeability = details: PAMPA, pH 7.4
[3] = BCL6 TR-FRET IC50 individual replicates, single replicates, 10 nM BCL6 for early examples, else 1 nM
[4] = read-out: BCL6 TR-FRET IC50, geometric mean of replicates
[5] = BCL6 TR-FRET mean pIC50, mean of replicates
[6] = read-out: BCL6 TR-FRET IC50 individual replicates, single replicates, 10 nM BCL6 for early examples, else 1 nM

| SMILES | Aq. Sol [1] | IC50 (human BCL6 BTB domain; [3]) | BCL6 TR-FRET mean pIC50 (human BCL6 BTB domain) | IC50 (human BCL6 BTB domain; [4]) | also measured |
| --- | --- | --- | --- | --- | --- |
| CCC1CCOc2c(c3cc(Nc4ccnc(Cl)c4C#N)ccc3n(C)c2=O)N1 (centres unmarked) [Compound 11b, 2-Chloro-4-((2-ethyl-7-methyl-6-oxo-1,2,3,4,6,7-hexahydro-[1,4]oxazepino[2,3-c]quinolin-10-yl)amino)nicotinonitrile] | 96 µM | 454 nM and 496 nM and 1020 nM | 6.21 | 612 nM and 610 nM |  |
| C[C@@H]1CCOc2c(c3cc(Nc4ccnc(Cl)c4C#N)ccc3n(C)c2=O)N1 [Compound 9b, (R)-2-Chloro-4-((2,7-dimethyl-6-oxo-1,2,3,4,6,7-hexahydro-[1,4]oxazepino-[2,3-c]quinolin-10-yl)amino)nicotinonitrile] | 190^+ μM |  |  |  |  |
| N#Cc1c(Nc2ccc3[nH]c(=O)c4c(c3c2)NCCC4)ccnc1Cl [Compound 5a, 2-Chloro-4-((5-oxo-1,2,3,4,5,6-hexahydrobenzo[h][1,6]naphthyridin-9-yl)amino)nicotinonitrile] |  | 7060 nM and 6930 nM and 3890 nM and 7370 nM | 5.21 | 6120 nM and 6100 nM | Aq. Sol [2]: 12 µM |
| CNC(=O)COc1cc2cc(Nc3nc(N4CCC(C(=O)N(C)C)CC4)ncc3Cl)cc(OC)c2n(C)c1=O [BI-3812, reference compound] |  | 3 nM |  |  | IC50 (human BCL6 BTB domain; [5]): 3.02 nM; LE (human BCL6 BTB domain): 0.31; LLE (human BCL6 BTB domain): 6.76 |
| C[C@H]1CCOc2c(c3cc(Nc4ccnc(Cl)c4C#N)ccc3n(C)c2=O)N1 [Compound 9a, (S)-2-Chloro-4-((2,7-dimethyl-6-oxo-1,2,3,4,6,7-hexahydro-[1,4]oxazepino-[2,3-c]quinolin-10-yl)amino)nicotinonitrile] | 200^+ μM and 199 μM |  |  |  |  |
| Cn1c(=O)c2c(c3cc(Nc4ccnc(Cl)c4C#N)ccc31)NCCCO2 [Compound 10, 2-Chloro-4-((7-methyl-6-oxo-1,2,3,4,6,7-hexahydro-[1,4]oxazepino[2,3-c]quinolin-10-yl)amino)nicotinonitrile] |  | 15600 nM and 22400 nM | 4.73 | 18700 nM and 19000 nM | Aq. Sol [2]: 12 µM |
| CNC(=O)COc1cc2cc(Nc3nc(N4C[C@H](C)C[C@H](C)C4)ncc3Cl)ccc2n(C)c1=O [BI-3802, reference compound] |  | 12 nM and 51 nM and 25 nM and 107 nM and 39 nM and 21 nM |  |  | IC50 (human BCL6 BTB domain; [5]): 33.1 nM; LE (human BCL6 BTB domain): 0.31; LLE (human BCL6 BTB domain): 3.98 |
| CC1CC(C)(C)Oc2c(c3cc(Nc4ccnc(Cl)c4C#N)ccc3n(C)c2=O)N1 (centres unmarked) [Compound 13b, 2-Chloro-4-((2,4,4,7-tetramethyl-6-oxo-1,2,3,4,6,7-hexahydro-[1,4]oxazepino[2,3-c]quinolin-10-yl)amino)nicotinonitrile] | 12 µM | 8700 nM and 16500 nM and > 6600 nM |  |  | IC50 (human BCL6 BTB domain; BCL6 TR-FRET IC50, geometric mean of replicates): > 9800 nM |
| Cn1c(=O)c2c(c3cc(Nc4ccnc(Cl)c4C#N)ccc31)NC(C(F)F)CCO2 (centres unmarked) [Compound 11e, 2-Chloro-4-((2-(difluoromethyl)-7-methyl-6-oxo-1,2,3,4,6,7-hexahydro-[1,4]oxazepino[2,3-c]quinolin-10-yl)amino)nicotinonitrile] | 119 µM | 2150 nM and 1540 nM and 2500 nM | 5.69 | 2020 nM and 2000 nM |  |
| CC(C)C1CCOc2c(c3cc(Nc4ccnc(Cl)c4C#N)ccc3n(C)c2=O)N1 (centres unmarked) [Compound 11d, 2-Chloro-4-((2-isopropyl-7-methyl-6-oxo-1,2,3,4,6,7-hexahydro-[1,4]oxazepino[2,3-c]quinolin-10-yl)amino)nicotinonitrile] | 40 µM | 2410 nM and 3460 nM and 3640 nM | 5.51 | 3120 nM and 3100 nM |  |
| CCNc1c(C)c(=O)n(C)c2ccc(Nc3ccnc(Cl)c3C#N)cc12 [Compound 4, 2-Chloro-4-((4-(ethylamino)-1,3-dimethyl-2-oxo-1,2-dihydroquinolin-6-yl)amino)nicotinonitrile] |  | 6090 nM and 4590 nM and 6040 nM | 5.25 | 5580 nM and 5600 nM | IC50 (human BCL6 BTB domain; [6]): 5570 nM and 5760 nM |
| C[C@H]1COC(=O)c2c(c3cc(Nc4ccnc(Cl)c4C#N)ccc3n(C)c2=O)N1 [Compound 7, (S)-2-Chloro-4-((2,7-dimethyl-5,6-dioxo-1,2,3,5,6,7-hexahydro-[1,4]oxazepino[6,5-c]quinolin-10-yl)amino)nicotinonitrile] |  | 153 nM and 151 nM and 56 nM and 58 nM | 7.03 | 94 nM | Papp (PAMPA permeability): < 0.2 ×10⁻⁶ cm/s; IC50 (human BCL6 BTB domain; [6]): 98 nM |
| CC1Nc2c(c(=O)n(C)c3ccc(Nc4ccnc(Cl)c4C#N)cc23)OCC1(C)C (centres unmarked) [Compound 13c, 2-Chloro-4-((2,3,3,7-tetramethyl-6-oxo-1,2,3,4,6,7-hexahydro-[1,4]oxazepino[2,3-c]quinolin-10-yl)amino)nicotinonitrile] | 31 µM |  |  |  |  |
| Cn1c(=O)c2c(c3cc(Nc4ccnc(Cl)c4C#N)ccc31)NC(C1CCC1)CCO2 (centres unmarked) [Compound 11c, 2-Chloro-4-((2-cyclobutyl-7-methyl-6-oxo-1,2,3,4,6,7-hexahydro-[1,4]oxazepino[2,3-c]quinolin-10-yl)amino)nicotinonitrile] | 26 µM | 3570 nM and 5260 nM | 5.37 | 4310 nM and 4300 nM | IC50 (human BCL6 BTB domain; [6]): 4270 nM |
| C[C@H]1COCc2c(c3cc(Nc4ccnc(Cl)c4C#N)ccc3n(C)c2=O)N1 [Compound 8, (S)-2-Chloro-4-((2,7-dimethyl-6-oxo-1,2,3,5,6,7-hexahydro-[1,4]oxazepino[6,5-c]quinolin-10-yl)amino)nicotinonitrile] |  | 2350 nM | 5.65 | 2240 nM and 2200 nM | IC50 (human BCL6 BTB domain; [6]): 2190 nM and 2180 nM |
| CC1COc2c(c3cc(Nc4ccnc(Cl)c4C#N)ccc3n(C)c2=O)N1 (centres unmarked) [Compound 6, 2-Chloro-4-((2,6-dimethyl-5-oxo-2,3,5,6-tetrahydro-1H-[1,4]oxazino[2,3-c]quinolin-9-yl)amino)nicotinonitrile] |  | 1110 nM and 1390 nM and 1530 nM | 5.88 | 1330 nM and 1300 nM | Aq. Sol [2]: 11 µM |
| Cn1c(=O)c2c(c3cc(Nc4ccnc(Cl)c4C#N)ccc31)N[C@H](C1CC1)C(F)(F)CO2 [Compound 14, (R)-2-Chloro-4-((2-cyclopropyl-3,3-difluoro-7-methyl-6-oxo-1,2,3,4,6,7-hexahydro-[1,4]oxazepino[2,3-c]quinolin-10-yl)amino)nicotinonitrile] |  | 615 nM and 397 nM | 6.31 | 494 nM and 490 nM |  |
| C[C@H]1C[C@H](C)Oc2c(c3cc(Nc4ccnc(Cl)c4C#N)ccc3n(C)c2=O)N1 [Compound 13a, 2-Chloro-4-(((2S,4S)-2,4,7-trimethyl-6-oxo-1,2,3,4,6,7-hexahydro-[1,4]oxazepino[2,3-c]quinolin-10-yl)amino)nicotinonitrile] | 114 µM |  |  |  |  |
| CC1CCc2c(c3cc(Nc4ccnc(Cl)c4C#N)ccc3n(C)c2=O)N1 (centres unmarked) [Compound 5b, 2-Chloro-4-((2,6-dimethyl-5-oxo-1,2,3,4,5,6-hexahydrobenzo[h][1,6]-naphthyridin-9-yl)amino)nicotinonitrile] |  | 1030 nM and 960 nM and 1460 nM and 1670 nM and 6960 nM and 4820 nM | 5.68 | 2080 nM and 2100 nM | Aq. Sol [2]: 1.8 µM |
| CC1Nc2c(c(=O)n(C)c3ccc(Nc4ccnc(Cl)c4C#N)cc23)OCC12CC2 (centres unmarked) [Compound 13d, 2-Chloro-4-((2′,7′-dimethyl-6′-oxo-1′,2′,6′,7′-tetrahydro-4′H-spiro[cyclopropane-1,3′-[1,4]oxazepino[2,3-c]quinolin]-10′-yl)amino)nicotinonitrile] | 126 µM | 1070 nM and 2070 nM and 1870 nM | 5.8 | 1590 nM and 1600 nM |  |
